Consider 1 compound from US4442093A, “Method for administering 24,25-dihydroxycholecalciferol to persons suffering from hypercalcemia” (Kureha Kagaku Kogyo Kabushiki Kaisha, priority 1981, dated 1984).

By inhibition is commonly meant the change of the read-out against control, counted positive when it falls.

Assay [1] concerns content of magnesium in serum and bone. In words: Serum and bone magnesium in rats on Vitamin D-deficient diet (Example 16). To be noted: diet TD-81143. The assay is classed as in vivo, male Wistar rats. As for the experimental part:
Forty male Wistar rats in 9th week after birth were divided equally into four groups, and the rats of each group were treated as follows:
The rats of the first group were raised with a normal diet (TD-81144) with daily oral administration of 0.2 ml of MCT (refer to Example 15)/100 g body weight for 5 weeks.
The rats of the second group were raised with a Vitamin D-deficient diet (TD-81143, made by TEKLAD Co., U.S.A., which causes abnormal metabolism of magnesium) with daily oral administration of 0.2 ml of MCT/100 g body weight for 5 weeks.
The rats of the third group were raised with the Vitamin D-deficient diet as in those of the […] with daily oral administration of 1 microgram of 24R,25-(OH)2 -D3 dissolved in 0.2 ml of MCT/100 g body weight for 5 weeks.
The rats of the fourth group were raised with the Vitamin D-deficient diet as in those of the […] with daily oral administration of 10 micrograms of 24R,25-(OH)2 -D3 dissolved in 0.2 ml of MCT/100 g body weight for 5 weeks.
After the final administration was over, all the rats were sacrificed to collect their bones and blood respectively.
Serum specimen was prepared by the ordinary method from the blood specimen, and the bones were washed to remove marrow, lyopholized at -20° C. for 3 days and pulverized in a mortar. After de-ashing 50 mg of the thus pulverized bone with 1 ml of 2 N aqueous hydrochloric solution at room temperature, the insoluble matter was removed by filtration, and the filtrate was subjected to atomic absorption method to find out the content of magnesium in the bone specimen. Magnesium content of the serum specimen was determined by atomic absorption method.

Assay [2] deals with calcium level in serum. Nature of the assay: Serum calcium in normal fasted rats (Example 2). It counts as in vivo, male Wistar-rats. Here is the method:
Four subgroups of male Wistar-rats (a subgroup consisting of 5 animals) were used as the test animals, and they were fasted one whole day before the test.
To the rats of the first group consisting of 2 subgroups, a solution of 24R,25-(OH)2 -D3 in the triglyceride ester used in Example 1 was orally administered once at a dose rate of 100 micrograms of the agent/kg body weight.
To the rats of the second group consisting of 2 subgroups, only the triglyceride used in Example 1 was administered orally, and while using them as control, the calcium level in their serum was determined as in the first group.

The test system of assay [3] is K-562 tumour cell derived from human leukemia. Nature of the assay: Inhibition of proliferation of K-562 cells (Example 24). To be noted: 3 days. It counts as cell-based. Here is the method: Cultured K-562 tumour cell derived from human leukemia, which proliferates in a suspended state in RPMI-1640 culture medium added with 10% by weight of fetal bovine serum was used in the following experiment.
The cells were cultured in the above-mentioned culture medium at an initial cell concentration of 1×10^5 cells/ml with or without adding 24R,25-(OH)2 -D3, which was placed in dishes kept in an incubator of an atmosphere consisting of 95% by volume of air and 5% by volume of gaseous carbon dioxide at 37° C. After culturing 3 days, the cultured medium was stained with tripan blue to count the total number of living cells. The results are shown in Table 18 with the specifically added substances into the culture medium other than fetal bovine serum of 10% by weight.

Assay [4] relates to thymic cells. In words: Pattern of the size of thymic cells by FACS (Example 12). It counts as in vivo, rats. To be noted: 100 µg/kg/day oral 12 days with puromycin aminonucleoside. Here is the method: After feeding the rats (the same number and the same grouping) of the same strain and treating them in the same manner as in Example 11, their thymus was resected, and an analysis of the pattern of the size of the thymic cells was carried out while using Fluorescence Activated Cell Sorter (FACS II, made by Becton-Dickinson Co.) as follows:
After loosing the resected thymus in phosphate buffer solution sufficiently with a pincette, pipetting well and passing the mixture through a standard #200 Tyler stainless steel mesh, the filtrate was treated with an aqueous 0.83% by weight ammonium chloride buffer solution containing tris-hydroxyaminomethane to carry out hemolysis of the erythrocytes intermingled therein followed by three times of washing with the phosphate buffer solution. After adjusting the concentration of the thus obtained thymic cell to 5×10^6 cells/ml with the addition of the phosphate buffer solution, the abovementioned analysis was carried out. The ratio of the number of living thymic cells to the total number of the thus obtained thymic cells was confirmed to be higher than 95% after staining with trypan blue and counting under microscope.
(Flow cytometry measures light scatter and fluorescence of single cells or particles in a stream.)

Assay [5] deals with blood sugar. In words: Blood sugar in streptozotocin rats (Example 22). The assay is classed as in vivo, male Wistar rats. To be noted: 10 µg/kg/day p.o., 4 weeks, streptozotocin i.p. As for the experimental part:
Among the male Wistar rats in 6th week after birth to which 60 mg of streptozotocin/kg body weight was intraperitoneally administered, those in which positive urine sugar was confirmed after one week of the administration, reduction of both urine sugar and blood sugar was shown by the administration of regular insulin and a state of hyper urine sugar and hyper blood sugar was confirmed after a few days of the administration of regular insulin. The confirmed rats were used as the model animals of glycosuria in the following tests. As control, the male Wistar rats intraperitoneally administered with aqueous physiological saline solution instead of streptozotocin were used. These rats were fed with an ordinary solid diet (CE-2, prepared by Nippon Crea Co., Ltd.)
The model animals were divided into two groups each consisting of 12 animals, and to the rats of the first group (according to the present invention), 24R,25-(OH)2 -D3 was forcibly administered p.o. in a state of solution in MCT (triglyceride of C8 and C10 -fatty acid) containing 0.2% by weight of ethanol once a day, 5 to 6 times a week for continuous 4 weeks at a daily dose rate of 10 micrograms/kg body weight. To the rats of the second group, only the same amount of MCT containing 0.2% by weight of ethanol as above was forcibly p.o. administered in the same manner as in the first group. […]

On to `C=C1CC[C@H](O)C/C1=C/C=C1\CCC[C@]2(C)[C@@H]([C@H](C)CC[C@@H](O)C(C)(C)O)CC[C@@H]12` [24R,25-(OH)2 -D3], for which the “Content of magnesium in bone” value in assay [1] (1 µg/100 g/day oral 5 weeks) is 0.395 ± 0.021%; in assay [1] (10 µg/100 g/day oral 5 weeks) it was 0.396 ± 0.016%. Further, the “Content of magnesium in serum” value in assay [1] (1 µg/100 g/day oral 5 weeks) came to 4.0 ± 0.3 mg/dL; in assay [1] (10 µg/100 g/day oral 5 weeks), 3.6 ± 0.3 mg/dL. Moreover, the entries for the “Calcium level in serum” value in assay [2] (2 h after 100 µg/kg oral) and in assay [2] (5 h after 100 µg/kg oral) were 10.6 ± 0.3 mg/dL and 10.5 ± 0.3 mg/dL, respectively. Besides, the figures for the “Number of K-562 cells after culture” value in assay [3] (1 microgram/ml) and in assay [3] (10 micrograms/ml) were 8.5 ×10^5 cells/ml and 3.5 ×10^5 cells/ml, respectively. The inhibition at 1 µg/mL in assay [3] (Homo sapiens, K562, 72 h, 1 microgram/ml, vs dimethylsulfoxide, read-out: Inhibition Rate of K-562 cells) worked out at 14%. Further, the inhibition at 10 µg/mL in assay [3] (Homo sapiens, K562, 72 h, 10 micrograms/ml, vs dimethylsulfoxide, read-out: Inhibition Rate of K-562 cells) amounted to 65%. Moreover, in assay [4], the “number ratio of cells a little larger than normal cell to total thymic cells” value is on record as “the same as that of the control group”. For the same compound, in assay [5], the Blood sugar came out at 208 ± 42 mg/dL.
